Data on 11 molecules can be found in US20240270762A1, “PENICILLIN-BINDING PROTEIN INHIBITORS” (priority 2021, published 2024).

In brackets after ≈: the same amount, converted by molar mass.

For one test, the target named is T1, A. baumannii PBP1a (Acinetobacter baumannii, UniProt A0ABX6CK30).
T1 sequence (A0ABX6CK30 1-851): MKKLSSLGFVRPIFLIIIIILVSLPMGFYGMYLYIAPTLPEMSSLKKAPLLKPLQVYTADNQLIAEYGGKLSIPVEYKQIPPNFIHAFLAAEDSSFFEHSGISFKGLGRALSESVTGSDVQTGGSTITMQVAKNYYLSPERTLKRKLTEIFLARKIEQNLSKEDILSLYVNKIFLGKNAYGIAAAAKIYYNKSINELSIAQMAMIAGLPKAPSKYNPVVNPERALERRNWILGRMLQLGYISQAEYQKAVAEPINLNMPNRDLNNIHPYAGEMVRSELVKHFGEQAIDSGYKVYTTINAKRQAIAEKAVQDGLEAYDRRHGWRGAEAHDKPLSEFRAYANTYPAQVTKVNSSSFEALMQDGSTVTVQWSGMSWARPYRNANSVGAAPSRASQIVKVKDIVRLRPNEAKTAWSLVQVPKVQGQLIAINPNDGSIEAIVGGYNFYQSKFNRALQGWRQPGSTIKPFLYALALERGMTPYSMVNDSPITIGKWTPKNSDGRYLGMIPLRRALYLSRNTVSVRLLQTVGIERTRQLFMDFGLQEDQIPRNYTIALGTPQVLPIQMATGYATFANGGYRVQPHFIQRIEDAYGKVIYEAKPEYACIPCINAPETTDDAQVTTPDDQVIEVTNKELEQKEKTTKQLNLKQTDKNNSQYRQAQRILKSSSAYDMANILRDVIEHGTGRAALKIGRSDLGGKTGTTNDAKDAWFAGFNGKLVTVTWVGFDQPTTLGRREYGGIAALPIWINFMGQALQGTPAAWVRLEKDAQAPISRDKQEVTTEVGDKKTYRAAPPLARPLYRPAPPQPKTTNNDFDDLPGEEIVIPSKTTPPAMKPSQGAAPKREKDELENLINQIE
Kind of test: Bocillin-FL competition binding via gel filtration, A. baumannii PBP1a. As to conditions: competition binding assay using Bocillin-FL via gel filtration; read-out: A. baumannii PBP1a Potency. An outline of the steps:
(§1)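 Competitive equilibrium binding; reporter Bocillin-FL. PBP + inhibitor (titration) pre-incubated → Bocillin-FL, 15 min → gel filtration → fluorescence. EC50 from Hill fit of fraction bound vs [inhibitor].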
(Size exclusion chromatography separates by hydrodynamic size, large species first.)

In a further test the target is A. baumannii PBP2 (Acinetobacter baumannii, UniProt D0C8Z9). As to the kind of experiment: Bocillin-FL competition binding via gel filtration, A. baumannii PBP2. An outline of the steps:
as §1

Another test relates to A. baumannii ATCC 19606. As to the kind of experiment: microbe, parasite or virus in culture. Type of test: cell-based. As to conditions: Acinetobacter baumannii, ATCC19606, read-out: MIC, A. baumannii ATCC 19606.
Another test deals with A. baumannii CDC-0036. As to the kind of experiment: microbe, parasite or virus in culture. The class given is cell-based. As to conditions: Acinetobacter baumannii, CDC0036, read-out: MIC, A. baumannii CDC-0036.
The next test relates to P. aeruginosa CDC-0110. Kind of test: microbe, parasite or virus in culture. The class given is cell-based. As to conditions: Pseudomonas aeruginosa, CDC0110, read-out: Minimum inhibitory concentration, P. aeruginosa CDC-0110.

A. baumannii PBP2, sequence (D0C8Z9 whole entry): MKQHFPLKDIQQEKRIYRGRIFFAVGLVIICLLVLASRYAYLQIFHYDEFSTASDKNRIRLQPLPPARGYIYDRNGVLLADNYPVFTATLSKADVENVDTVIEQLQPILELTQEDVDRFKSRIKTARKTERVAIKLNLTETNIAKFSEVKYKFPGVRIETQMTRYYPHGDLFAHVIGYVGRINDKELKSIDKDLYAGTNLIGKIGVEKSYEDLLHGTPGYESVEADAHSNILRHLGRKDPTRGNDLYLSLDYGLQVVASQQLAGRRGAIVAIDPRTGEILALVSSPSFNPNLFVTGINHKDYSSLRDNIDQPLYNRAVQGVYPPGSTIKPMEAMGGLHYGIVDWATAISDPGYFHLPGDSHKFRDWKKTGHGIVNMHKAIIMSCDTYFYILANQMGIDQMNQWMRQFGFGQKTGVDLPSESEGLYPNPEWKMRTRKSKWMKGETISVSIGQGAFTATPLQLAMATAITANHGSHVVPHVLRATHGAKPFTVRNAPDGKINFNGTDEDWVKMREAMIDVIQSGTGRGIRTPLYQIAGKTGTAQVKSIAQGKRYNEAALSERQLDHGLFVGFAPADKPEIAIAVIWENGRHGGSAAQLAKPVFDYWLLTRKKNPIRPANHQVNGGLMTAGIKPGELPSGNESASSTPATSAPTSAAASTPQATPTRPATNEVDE

In the case of `O=C(NCCCN1CCN(C(=O)NC(C(=O)N[C@H]2Cc3ccc(F)c(C(=O)O)c3OB2O)c2cc(F)c(O)c(O)c2Cl)C(=O)C1=O)c1ccc(O)cc1O` (stereo partly drawn) [Example 307, (3R)-3-(2-(2-chloro-5-fluoro-3,4-dihydroxyphenyl)-2-(4-(3-(2,4-dihydroxybenzamido)propyl)-2,3-dioxopiperazine-1-carboxamido)acetamido)-7-fluoro-2-hydroxy-3,4-dihydro-2H-benzo[e][1,2]oxaborinine-8-carboxylic acid], the EC50 on A. baumannii PBP1a and at A. baumannii PBP2 was less than 10 µM in each case. Further, the MIC in the test with A. baumannii ATCC 19606 was less than 1 mg/L; with A. baumannii CDC-0036 it was 2 to 4 mg/L (≈ 2.58 to 5.16 µM); in the test with P. aeruginosa CDC-0110, less than 1 mg/L.
In the case of `O=C(O)c1c(F)ccc2c1OB(O)[C@@H](NC(=O)C(NC(=O)N1CCN(C3CCN(C(=O)c4c(F)ccc(O)c4F)CC3)C(=O)C1=O)c1cc(F)c(O)c(O)c1Cl)C2` (stereo partly drawn) [Example 308, (3R)-3-(2-(2-chloro-5-fluoro-3,4-dihydroxyphenyl)-2-(4-(1-(2,6-difluoro-3-hydroxybenzoyl)piperidin-4-yl)-2,3-dioxopiperazine-1-carboxamido)acetamido)-7-fluoro-2-hydroxy-3,4-dihydro-2H-benzo[e][1,2]oxaborinine-8-carboxylic acid], the EC50 at A. baumannii PBP1a was 10 to 50 µM; on A. baumannii PBP2 it was less than 10 µM. The MIC with A. baumannii ATCC 19606 was less than 1 mg/L; with A. baumannii CDC-0036 it was 2 to 4 mg/L (≈ 2.43 to 4.87 µM); with P. aeruginosa CDC-0110, less than 1 mg/L.
With `O=C(O)c1c(F)ccc2c1OB(O)[C@@H](NC(=O)C(NC(=O)N1CCN(C3CCN(C(=O)c4cc(O)cc(O)c4)CC3)C(=O)C1=O)c1cc(F)c(O)c(O)c1Cl)C2` (stereo partly drawn) [Example 309, (3R)-3-(2-(2-chloro-5-fluoro-3,4-dihydroxyphenyl)-2-(4-(1-(3,5-dihydroxybenzoyl)piperidin-4-yl)-2,3-dioxopiperazine-1-carboxamido)acetamido)-7-fluoro-2-hydroxy-3,4-dihydro-2H-benzo[e][1,2]oxaborinine-8-carboxylic acid], the EC50 at A. baumannii PBP1a was 10 to 50 µM; at A. baumannii PBP2 it was less than 10 µM. The MIC in the test with A. baumannii ATCC 19606, in the test on A. baumannii CDC-0036 and in the test with P. aeruginosa CDC-0110 was less than 1 mg/L in each case.
Take `CN(CCCN1CCN(C(=O)NC(C(=O)N[C@H]2Cc3ccc(F)c(C(=O)O)c3OB2O)c2cc(F)c(O)c(O)c2Cl)C(=O)C1=O)C(=O)c1cccc(O)c1` (stereo partly drawn) [Example 310, (3R)-3-(2-(2-chloro-5-fluoro-3,4-dihydroxyphenyl)-2-(4-(3-(3-hydroxy-N-methylbenzamido)propyl)-2,3-dioxopiperazine-1-carboxamido)acetamido)-7-fluoro-2-hydroxy-3,4-dihydro-2H-benzo[e][1,2]oxaborinine-8-carboxylic acid]: the values for the EC50 at A. baumannii PBP1a and on A. baumannii PBP2 were 50 to 250 µM and 10 to 50 µM, respectively. Further, the MIC in the test on A. baumannii ATCC 19606 is less than 1 mg/L; in the test on A. baumannii CDC-0036, 2 to 4 mg/L (≈ 2.58 to 5.17 µM); with P. aeruginosa CDC-0110, less than 1 mg/L.
With `O=C(NCCCN1CCN(C(=O)NC(C(=O)N[C@H]2Cc3ccc(F)c(C(=O)O)c3OB2O)c2cc(F)c(O)c(O)c2Cl)C(=O)C1=O)c1ccncc1F` (stereo partly drawn) [Example 400, (3R)-3-(2-(2-chloro-5-fluoro-3,4-dihydroxyphenyl)-2-(4-(3-(3-fluoroisonicotinamido)propyl)-2,3-dioxopiperazine-1-carboxamido)acetamido)-7-fluoro-2-hydroxy-3,4-dihydro-2H-benzo[e][1,2]oxaborinine-8-carboxylic acid], the EC50 at A. baumannii PBP1a and on A. baumannii PBP2 was 10 to 50 µM in each case. Also, the figures for the MIC with A. baumannii ATCC 19606, in the test on A. baumannii CDC-0036 and in the test with P. aeruginosa CDC-0110 were less than 1 mg/L, 2 to 4 mg/L (≈ 2.62 to 5.24 µM) and less than 1 mg/L, respectively.
Consider `O=C(NCCCN1CCN(C(=O)NC(C(=O)N[C@H]2Cc3ccc(F)c(C(=O)O)c3OB2O)c2cc(F)c(O)c(O)c2Cl)C(=O)C1=O)c1c(F)cncc1F` (stereo partly drawn) [Example 402, (3R)-3-(2-(2-chloro-5-fluoro-3,4-dihydroxyphenyl)-2-(4-(3-(3,5-difluoroisonicotinamido)propyl)-2,3-dioxopiperazine-1-carboxamido)acetamido)-7-fluoro-2-hydroxy-3,4-dihydro-2H-benzo[e][1,2]oxaborinine-8-carboxylic acid], for which the EC50 at A. baumannii PBP1a is less than 10 µM; at A. baumannii PBP2, 10 to 50 µM. Further, the MIC is less than 1 mg/L in the test on A. baumannii ATCC 19606, 2 to 4 mg/L (≈ 2.56 to 5.12 µM) with A. baumannii CDC-0036 and less than 1 mg/L in the test with P. aeruginosa CDC-0110.
In the case of `O=C(NCCCN1CCN(C(=O)NC(C(=O)N[C@H]2Cc3ccc(F)c(C(=O)O)c3OB2O)c2cc(F)c(O)c(O)c2Cl)C(=O)C1=O)c1c(F)cncc1Cl` (stereo partly drawn) [Example 403, (3R)-3-(2-(2-chloro-5-fluoro-3,4-dihydroxyphenyl)-2-(4-(3-(3-chloro-5-fluoroisonicotinamido)propyl)-2,3-dioxopiperazine-1-carboxamido)acetamido)-7-fluoro-2-hydroxy-3,4-dihydro-2H-benzo[e][1,2]oxaborinine-8-carboxylic acid], the EC50 at A. baumannii PBP1a and on A. baumannii PBP2 was 10 to 50 µM in each case. The figures for the MIC in the test on A. baumannii ATCC 19606, in the test on A. baumannii CDC-0036 and with P. aeruginosa CDC-0110 were less than 1 mg/L, 2 to 4 mg/L (≈ 2.51 to 5.02 µM) and less than 1 mg/L, respectively.
Regarding `O=C(NCCCN1CCN(C(=O)NC(C(=O)N[C@H]2Cc3ccc(F)c(C(=O)O)c3OB2O)c2cc(F)c(O)c(O)c2Cl)C(=O)C1=O)c1cc(F)c(F)c(O)c1F` (stereo partly drawn) [Example 404, (3R)-3-(2-(2-chloro-5-fluoro-3,4-dihydroxyphenyl)-2-(2,3-dioxo-4-(3-(2,4,5-trifluoro-3-hydroxybenzamido)propyl)piperazine-1-carboxamido)acetamido)-7-fluoro-2-hydroxy-3,4-dihydro-2H-benzo[e][1,2]oxaborinine-8-carboxylic acid], the EC50 at A. baumannii PBP1a and at A. baumannii PBP2 was less than 10 µM throughout. Further, the MIC is less than 1 mg/L in the test on A. baumannii ATCC 19606, 2 to 4 mg/L (≈ 2.46 to 4.91 µM) with A. baumannii CDC-0036 and less than 1 mg/L in the test with P. aeruginosa CDC-0110.
As to `O=C(NCCCN1CCN(C(=O)NC(C(=O)N[C@H]2Cc3ccc(F)c(C(=O)O)c3OB2O)c2cc(F)c(O)c(O)c2Cl)C(=O)C1=O)c1cccc(O)c1F` (stereo partly drawn) [Example 406, (3R)-3-(2-(2-chloro-5-fluoro-3,4-dihydroxyphenyl)-2-(4.-(3-(2-fluoro-3-hydroxybenzamido)propyl)-2,3-dioxopiperazine-1-carboxamido)acetamido)-7-fluoro-2-hydroxy-3,4-dihydro-2H-benzo[e][1,2]oxaborinine-8-carboxylic acid], the EC50 is less than 10 µM at A. baumannii PBP1a and 10 to 50 µM at A. baumannii PBP2. Moreover, the MIC is less than 1 mg/L in the test with A. baumannii ATCC 19606, 2 to 4 mg/L (≈ 2.57 to 5.14 µM) in the test with A. baumannii CDC-0036 and less than 1 mg/L with P. aeruginosa CDC-0110.
For `O=C(NCCCN1CCN(C(=O)NC(C(=O)N[C@H]2Cc3ccc(F)c(C(=O)O)c3OB2O)c2cc(F)c(O)c(O)c2Cl)C(=O)C1=O)c1cc(O)ccc1F` (stereo partly drawn) [Example 407, (3R)-3-(2-(2-chloro-5-fluoro-3,4-dihydroxyphenyl)-2-(4-(3-(2-fluoro-5-hydroxybenzamido)propyl)-2,3-dioxopiperazine-1-carboxamido)acetamido)-7-fluoro-2-hydroxy-3,4-dihydro-2H-benzo[e][1,2]oxaborinine-8-carboxylic acid], the results for the EC50 on A. baumannii PBP1a and on A. baumannii PBP2 were less than 10 µM and 10 to 50 µM, respectively. Also, the MIC was less than 1 mg/L in the test on A. baumannii ATCC 19606, 2 to 4 mg/L (≈ 2.57 to 5.14 µM) with A. baumannii CDC-0036 and less than 1 mg/L with P. aeruginosa CDC-0110.
As to `O=C(NCCCN1CCN(C(=O)NC(C(=O)N[C@H]2Cc3ccc(F)c(C(=O)O)c3OB2O)c2cc(F)c(O)c(O)c2Cl)C(=O)C1=O)c1cc(O)ccc1Cl` (stereo partly drawn) [Example 408, (3R)-3-(2-(2-chloro-5-fluoro-3,4-dihydroxyphenyl)-2-(4-(3-(2-chloro-5-hydroxybenzamido)propyl)-2,3-dioxopiperazine-1-carboxamido)acetamido)-7-fluoro-2-hydroxy-3,4-dihydro-2H-benzo[e][1,2]oxaborinine-8-carboxylic acid], the EC50 on A. baumannii PBP1a and at A. baumannii PBP2 was less than 10 µM each time. The MIC in the test on A. baumannii ATCC 19606 was less than 1 mg/L; with A. baumannii CDC-0036, 8 to 16 mg/L (≈ 10.1 to 20.1 µM); in the test on P. aeruginosa CDC-0110, less than 1 mg/L.
